The record followed here is ChEMBL document CHEMBL1144325, “Synthesis and monoamine transporter affinity of new 2beta-carbomethoxy-3beta-[4-(substituted thiophenyl)]phenyltropanes: discovery of a selective SERT antagonist with picomolar potency” (Bioorg Med Chem Lett, 2005).

The target in assay [1] is Monoamine transporters; serotonin & dopamine (Rattus norvegicus) (UniProt P31652+P23977). Put plainly: Selectivity for inhibition of serotonin and dopamine transporters. The assay is classed as protein assay.
Chain of Monoamine transporters; serotonin & dopamine (Rattus norvegicus) (P23977 whole entry, looked up): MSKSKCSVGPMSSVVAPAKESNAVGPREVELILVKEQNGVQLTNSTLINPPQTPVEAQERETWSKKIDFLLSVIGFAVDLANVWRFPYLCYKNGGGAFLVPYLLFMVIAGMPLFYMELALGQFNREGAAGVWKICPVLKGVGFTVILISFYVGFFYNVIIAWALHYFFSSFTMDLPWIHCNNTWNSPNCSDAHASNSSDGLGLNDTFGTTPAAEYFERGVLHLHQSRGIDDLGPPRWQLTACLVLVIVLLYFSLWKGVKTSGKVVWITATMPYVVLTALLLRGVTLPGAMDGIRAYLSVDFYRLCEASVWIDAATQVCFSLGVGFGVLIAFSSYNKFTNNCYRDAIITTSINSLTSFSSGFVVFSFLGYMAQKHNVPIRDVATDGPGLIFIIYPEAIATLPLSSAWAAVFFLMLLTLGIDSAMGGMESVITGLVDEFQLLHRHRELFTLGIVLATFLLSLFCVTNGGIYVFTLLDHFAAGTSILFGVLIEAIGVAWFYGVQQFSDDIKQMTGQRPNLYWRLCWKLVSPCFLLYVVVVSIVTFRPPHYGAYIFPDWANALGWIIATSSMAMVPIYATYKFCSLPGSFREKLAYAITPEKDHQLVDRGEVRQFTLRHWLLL
Chain of Monoamine transporters; serotonin & dopamine (Rattus norvegicus) (P31652 whole entry, looked up): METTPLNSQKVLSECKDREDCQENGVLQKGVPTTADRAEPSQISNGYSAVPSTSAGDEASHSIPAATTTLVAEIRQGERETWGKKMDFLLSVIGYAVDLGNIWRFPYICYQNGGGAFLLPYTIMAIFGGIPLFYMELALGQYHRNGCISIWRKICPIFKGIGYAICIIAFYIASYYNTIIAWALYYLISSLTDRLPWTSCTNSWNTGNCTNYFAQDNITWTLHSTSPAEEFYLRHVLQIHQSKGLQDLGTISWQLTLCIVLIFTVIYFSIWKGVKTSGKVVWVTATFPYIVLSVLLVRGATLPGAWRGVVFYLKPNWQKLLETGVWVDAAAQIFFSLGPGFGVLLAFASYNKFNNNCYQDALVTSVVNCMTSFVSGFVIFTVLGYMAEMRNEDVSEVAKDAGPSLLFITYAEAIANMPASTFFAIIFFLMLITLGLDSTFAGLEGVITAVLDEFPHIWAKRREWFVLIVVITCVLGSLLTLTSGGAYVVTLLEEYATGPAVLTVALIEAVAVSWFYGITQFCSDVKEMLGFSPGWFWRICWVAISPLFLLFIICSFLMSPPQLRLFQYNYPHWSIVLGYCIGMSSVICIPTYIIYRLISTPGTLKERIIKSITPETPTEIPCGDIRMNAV
Assay [2] addresses Monoamine transporters; Norepinephrine & serotonin (Rattus norvegicus) (UniProt P31652+Q9WTR4). Put plainly: Selectivity for inhibition of serotonin and norepinephrine transporters. The assay is classed as protein assay.
In assay [3] the target is Sodium-dependent serotonin transporter (Rattus norvegicus, UniProt P31652). Put plainly: Displacement of [3H]paroxetine from serotonin transporter of rat cerebral cortex. It counts as tissue-based.
Chain of Sodium-dependent serotonin transporter (P31652 whole entry): as the sequence (P31652 whole entry, looked up) above
For assay [4], the target named is Norepinephrine transporter (Rattus norvegicus, UniProt Q9WTR4). Put plainly: Displacement of [3H]nisoxetine from norepinephrine transporter of rat cerebral cortex. The assay is classed as tissue-based.
Chain of Norepinephrine transporter (Q9WTR4 whole entry): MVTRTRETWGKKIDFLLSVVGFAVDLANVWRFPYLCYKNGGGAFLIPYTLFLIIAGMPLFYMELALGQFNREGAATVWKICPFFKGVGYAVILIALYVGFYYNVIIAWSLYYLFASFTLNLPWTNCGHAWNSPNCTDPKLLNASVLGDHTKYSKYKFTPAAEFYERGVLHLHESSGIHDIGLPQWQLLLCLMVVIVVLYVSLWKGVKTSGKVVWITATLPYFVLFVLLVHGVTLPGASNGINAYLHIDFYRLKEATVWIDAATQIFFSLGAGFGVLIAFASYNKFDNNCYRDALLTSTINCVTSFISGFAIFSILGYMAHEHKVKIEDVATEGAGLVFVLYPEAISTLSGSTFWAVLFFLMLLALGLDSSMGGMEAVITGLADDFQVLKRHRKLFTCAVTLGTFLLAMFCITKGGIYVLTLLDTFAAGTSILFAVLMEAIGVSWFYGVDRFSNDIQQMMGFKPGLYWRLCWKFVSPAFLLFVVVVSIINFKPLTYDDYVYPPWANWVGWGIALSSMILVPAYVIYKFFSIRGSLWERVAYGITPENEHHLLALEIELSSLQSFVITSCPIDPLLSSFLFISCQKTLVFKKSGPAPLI
Assay [5] concerns the target Sodium-dependent dopamine transporter (Rattus norvegicus, UniProt P23977). Put plainly: Displacement of [3H]GBR-12935 from dopamine transporter of rat caudate-putamen. The assay is classed as tissue-based.

Molecules are shown by their SMILES.

Chain of Sodium-dependent dopamine transporter (P23977 whole entry): as the sequence (P23977 whole entry, looked up) above

Consider `COC(=O)C1C(c2ccc(-c3ccc(I)s3)cc2)CC2CCC1N2C` (configuration not stated), for which the figures for the Ratio in assay [1] and in assay [2] were 4.9 and 249, respectively. Besides, the values for the inhibition constant (Ki) in assay [3], in assay [4] and in assay [5] were 4.56 nM, 1140 nM and 22.1 nM, respectively.

Turning to `COC(=O)C1C(c2ccc(-c3ccc(N)s3)cc2)CC2CCC1N2C` (configuration not stated), the Ratio is greater than 155 in assay [1] and greater than 464 in assay [2]. For the same molecule, the Ki in assay [3] is 64.7 nM; in assay [4], greater than 30000 nM; in assay [5], greater than 10000 nM.

As for `COC(=O)C1C2CCC(CC1c1ccc(-c3cccs3)cc1)N2` (configuration not stated), the Ratio in assay [1] came out at 111; in assay [2], 685. Besides, the results for the inhibitory constant (Ki) in assay [3], in assay [4] and in assay [5] were 0.11 nM, 75.3 nM and 12.2 nM, respectively.

Turning to `COC(=O)C1C(c2ccc(-c3ccc(Cl)s3)cc2)CC2CCC1N2C` (configuration not stated), the Ratio in assay [1] was determined as 6.9; in assay [2], 486. The Ki in assay [3] stood at 0.64 nM; in assay [4], 311 nM; in assay [5], 4.42 nM.

With `COC(=O)C1C(c2ccc(-c3ccsc3)cc2)CC2CCC1N2C` (configuration not stated), the Ratio in assay [1] was found to be 710; in assay [2] it was 11100. The Ki in assay [3] was 0.017 nM; in assay [4] it was 189 nM; in assay [5], 12.1 nM.

On to `COC(=O)C1C(c2ccc(-c3cc([N+](=O)[O-])c([N+](=O)[O-])s3)cc2)CC2CCC1N2C` (configuration not stated), for which the Ratio in assay [1] was greater than 6; in assay [2] it was greater than 2. The inhibition constant Ki in assay [3] is 5000 nM; in assay [4], greater than 10000 nM; in assay [5], greater than 30000 nM.

For `COC(=O)C1C2CCC(CC1c1ccc(-c3ccsc3)cc1)N2` (configuration not stated), the Ratio in assay [1] turned out to be 28; in assay [2], 170. Besides, the values for the Ki in assay [3], in assay [4] and in assay [5] were 0.23 nM, 39 nM and 6.4 nM, respectively.

For the molecule `COC(=O)C1C(c2ccc(I)cc2)CC2CCC1N2C` (configuration not stated), the Ratio in assay [1] turned out to be 2.1; in assay [2], 6.1.

In the case of `COC(=O)C1C(c2ccc(-c3ccc(Br)s3)cc2)CC2CCC1N2C` (configuration not stated), the Ratio was determined as 17 in assay [1] and 853 in assay [2]. The Ki in assay [3] stood at 0.38 nM; in assay [4], 324 nM; in assay [5], 6.43 nM.

On to `COC(=O)C1C(c2ccc(-c3cscc3Br)cc2)CC2CCC1N2C` (configuration not stated), for which the Ratio in assay [1] is 46; in assay [2], greater than 2490. Further, the inhibition constant Ki in assay [3] was 4.02 nM; in assay [4] it was greater than 10000 nM; in assay [5] it was 183 nM.

Consider `COC(=O)C1C(c2ccc(-c3cccs3)cc2)CC2CCC1N2C` (configuration not stated), for which the Ratio is 346 in assay [1] and 1050 in assay [2]. Further, the inhibition constant Ki in assay [3] is 0.15 nM; in assay [4], 158 nM; in assay [5], 52 nM.
